Reference: patent US20060111284A1, “Method for treating cancer” (priority 2002, published 2006)

Legend:
cells = experiment: Chemosensitizing by redox clamping agent co-administered with anti-cancer agent (FIG. 2); assay type: cell-based
Description: The present invention further provides a method of reducing the effective dose of an anti-cancer agent necessary to be effective against cancer comprising administering a redox clamping agent in conjunction with an anti-cancer agent. It is preferred that the redox clamping agent is Mesna or DMSA. Redox clamping agents have the ability to maintain cells in a selected redox state. […] Redox clamping agents are useful in enhancing the therapeutic activity of chemotherapeutic agents such as butyrate that are dependent upon the redox state of the cell. Redox clamping agents are further useful in controlling hyperproliferation of cells and conditions associated with abnormal fluctuations in the redox state of cells. In one aspect, this invention provides a method of treating cancerous tumors comprising administering an effective dose of an anti-cancer agent in conjunction with a redox clamping agent, wherein the redox clamping agent acts as a chemoenhancer or a chemosensitizer. […] The administration of Mesna in conjunction with an anti-cancer agent may be as separate compounds or in a composition formulated and titrated to a dose and in a concentration that would achieve the optimal therapeutic dose of the anti-cancer agent providing a higher tumor cell kill with a lower dose of the anti-cancer agent than the typical therapeutic dose administered to a patient. […]

H4 Rat Hepatoma cells = experiment: Hydrogen peroxide stress in H4 Rat Hepatoma cells, antioxidant levels; assay type: cell-based; conditions: 100 uM hydrogen peroxide for two hours, medium replaced, determined after 24 hours
Protocol: To further exemplify the redox clamping properties of Mesna, stress was induced in H4 Rat Hepatoma cells by treatment with 100 uM hydrogen peroxide for two hours and then the medium was removed and replaced with an anti-cancer agent. The cellular viability, as well as glutathione and metallothionein levels were determined after 24 hours in culture. […] The inhibition of stress induced upswing in antioxidant levels is characteristic of redox clamping agents.
(§1) In all of the experiments associated with the investigation of Mesna as a redox clamping agent, as a stand-alone anticancer agent as well as a chemosensitizer, the cell culture medium used was Swim's S-77 medium containing 12 uM cystine, instead of conventional levels of this amino acid (i.e., 50 uM). All other components of the medium were maintained at conventional concentrations. […] The ability of cystine to supply cells with cysteine, which then function as a precursor amino acid for glutathione synthesis, is thought to be responsible for the abnormally high basal levels of glutathione in cultured tumor cell lines.

human tumor cell lines = experiment: Growth inhibition of human tumor cell lines in culture; assay type: cell-based
Description: The present invention provides a method of treating lymphoma, ovarian cancer, colorectal cancer, or gastric cancer comprising administering an effective amount of Mesna to a patient with lymphoma, ovarian cancer, colorectal cancer or gastric cancer. Mesna inhibits the growth of several human tumor cell lines in culture, and there are no strict relationships between the histopathological origin of the cell lines and the sensitivity of the cell lines to Mesna. […] It is further preferred that the patient be administered Mesna for a seven to ten day period. The doses may be cycled. The actual dose will be dependent on the size, type and location of the tumor as well as the overall status of the patient. It is preferred that high concentrations of Mesna be administered intravenously to achieve clamping initially, with further administration of oral doses to maintain the clamped state.
Cancer cell lines were growth inhibited when Mesna was administered on several consecutive days. Mesna has shown good activity in preventing the urotoxicity of oxazaphosphorine compound.
as §1

human LNCaP cells = experiment: Two-step arsenic then Mesna treatment, apoptosis and glutathione in LNCaP cells; assay type: cell-based
Protocol: Human LNCaP cells, treated with 100 uM arsenic for 2 hours then washed and re-fed with normal medium, develop an elevation in cellular glutathione levels over a 24-hour period. Since exogenous antioxidants are known to be potent inhibitors of apoptotic mechanism, it is believed that internally-produced antioxidants such as glutathione function in a similar manner. […] Although Mesna increases apoptosis alone, the low concentrations of Mesna utilized in this two-step treatment protocol increased apoptosis minimally i.e., to 11 percent from a background of 3 to 5 percent in untreated cells.
as §1

[1] = tested on: metastatic and/or relapsed tumors refractory to conventional therapy; experiment: Clinical study of oral Mesna as single agent in refractory cancer patients; assay type: in vivo, human
Protocol: From December 1996 to March 1998 a study was performed on 14 ambulatory patients with metastatic and/or relapsed tumors refractory to conventional therapy. Eligibility criteria included histologically-confirmed advanced cancer, patients age was greater than 18 years, with a life expectancy no less than two months. The patients had not undergone major surgery within 2 weeks, or radiotherapy and/or chemotherapy within one month of the study. […] Exclusion criteria included active uncontrolled infection, pregnancy, lactation and any other co-existing medical problems severe enough to prevent full compliance with the study. Objectively measurable disease in the patients was required. All patients gave informed written consent before treatment. 600 mg/m^2 of Mesna was given by oral route four times a day, masked in orange juice for 10 consecutive days. Cycles were repeated every 15 days. No simultaneous chemotherapy and or radiotherapy and no other supportive care was given. The main objective of the study was to determine the anti-tumoral activity and toxicity of Mesna for heavily and or refractory pretreated cancer patients. […] The patients were all previously treated with between two and four different chemotherapy regimens. Mesna was administered as a single agent to all of the patients in the study. The toxic effects of Mesna and number of nodes were assessed during the first cycle of Mesna administration. […] For colorectal cancer a greater than 50% reduction of nodular lesions metastasized to liver was registered, during the second schedule of therapy. For gastric cancer a greater than 50% reduction of a subcutaneous nodule was measured during the second course of Mesna treatment.

[2] = within a few minutes after administration; cited from earlier work
[3] = even in very high dose, 1000 mg/kg; cited from earlier work
[4] = 100 uM arsenic 2 hours, washed, then medium containing 100 uM Mesna

CCCC(=O)O [Butyrate]
concentration of butyrate that induces apoptosis (cells; butyrate alone): greater than 3 mM | concentration of butyrate giving an effective kill (cells; in the presence of a redox clamping agent): ≥ 0.5 mM

O=C(O)[C@@H](S)[C@@H](S)C(=O)O [DMSA]
stress-induced upswings in antioxidant levels (glutathione, metallothionein) (H4 Rat Hepatoma cells): oppose stress-induced upswings in antioxidant levels

O=S(=O)([O-])CCSSCCS(=O)(=O)[O-].[Na+].[Na+] [Dimesna, Disodium-2,2′-dithiobisethane sulfonate]
interference with the growth inhibitory activity of Mesna (human tumor cell lines): did not interfere

O=S(=O)([O-])CCS.[Na+] [Mesna, Sodium-2-mercaptoethane sulphonate]
elevation in glutathione levels (human LNCaP cells; [4]): dramatically diminished | fraction of apoptotic cells compared to arsenic alone (human LNCaP cells; [4]): increased more than two-fold | apoptosis (human LNCaP cells; Mesna alone at the low concentration of the two-step protocol, background 3 to 5 percent in untreated cells): 11% | stress-induced upswings in antioxidant levels (glutathione, metallothionein) (H4 Rat Hepatoma cells): oppose stress-induced upswings in antioxidant levels | reduction of a subcutaneous nodule, gastric cancer ([1]; 600 mg/m^2 oral four times a day, 10 days, second course): greater than 50% | reduction of nodular lesions metastasized to liver, colorectal cancer ([1]; 600 mg/m^2 oral four times a day, 10 days, second schedule of therapy): greater than 50% | objective response ([1]; lung cancer, soft tissue sarcoma, skin metastases of unknown origin, bladder cancer, melanoma, cancer of the cervix): No objective responses | clinical response, ovarian cancer ([1]; two patients, 600 mg/m^2 oral four times a day, 10 days, second and third course): reduced ascites and pain | incorporation of 3H-thymidine, proline and uridine (human tumor cell lines): inhibited | growth of human tumor cell lines in culture (human tumor cell lines; lymphoma, ovarian, colorectal, gastric cancer lines, administered on several consecutive days): inhibits growth | fraction of administered dose transformed into Mesna disulphide [2]: more than 90% | pharmacological and toxicological character [3]: relatively inert

[AsH3] [arsenic]
apoptosis of the cells (human LNCaP cells; 100 uM arsenic for 2 hours, washed, re-fed with normal medium): 28%
